Earlier results, collected in US11439651B2 (priority 2020, dated 2022).

Legend:
SARS particles = settings: cultured human cells with SARS particles added
SARS = settings: pre-treatment with low concentrations; cultured cells or freshly obtained human nasal epithelial cells

For `CCCCCCCCCCCCC/C=C/[C@@H](O)[C@@H](N)CO` [sphingosine], the cellular infection (SARS particles) is listed as “prevented cellular infection” and the “adhesion of and infection with the virus” value (SARS) is listed as “prevented adhesion of and infection with the virus”.
